Results on 11 compounds are retold here after ChEMBL document CHEMBL1201862, “PubChem BioAssay data set” (2004).

The source made the active and inactive calls.

The target in test [1] is Prothrombin (Bos taurus, UniProt P00735). Briefly: thrombin protease inhibitors – biochemical, fluorescence polarization, uHTS hits, dose response (AID 602369). Type of test: functional.
The target in test [2] is 26S proteasome non-ATPase regulatory subunit 14 (Homo sapiens, UniProt O00487). Briefly: inhibition of proteasome subunit RPN11 – biochemical, fluorescence polarization, uHTS hits, confirmation (AID 602368). Type of test: functional. In general terms: Fluorescence polarisation rises when a labelled molecule tumbles more slowly, as on binding a larger partner.
Test [3] addresses 72 kDa type IV collagenase (Homo sapiens, UniProt P08253). The test can be described thus: Dose Response validation of uHTS RPN11 inhibitor hits using a MMP-2 Fluorescence assay. Type of test: functional.
Test [4] is described as follows: non-specific 3'UTR reporter inhibition in Clone20-Shn3RL – cell-based, Renilla luciferase, cherry-picked, counter-screen for Shn3 inhibitor project, dose response (AID 624133). Type of test: functional. For orientation: A counterscreen serves to expose hits that act by an unwanted route or on another target.
Test [5] has as its target Melanocortin receptor 4 (Homo sapiens, UniProt P32245). Briefly: inhibitors of MC4R cAMP signaling – cell-based, TR-FRET, biased antagonists, dose response (AID 602298).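 Also: antagonist potency against agonist-stimulated cAMP production.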 Type of test: functional. In general terms: In TR-FRET formats the signal depends on donor and acceptor labels being close together.
Test [6] can be described thus: loss of viability in HepG2 cells – cell-based, CellTiter-Glo, cherry-picked, cytotoxicity control for Shn3 inhibitor project, dose response (AID 624134). Type of test: functional.
Test [7] can be described thus: cAMP pathway inhibition in counterscreen cell line – TR-FRET cAMP detection, counter-screen for MC4R biased antagonist project, dose response (AID 602305).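 Also: U2OS cells stimulated with forskolin near its EC80 as the cAMP inducer; potency is for inhibition of forskolin-stimulated cAMP signaling.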 Type of test: functional, cell-based.
Test [8] in a line: reduction of Shn3 3'UTR-driven luciferase in osteoblasts – cell-based, Clone20 osteoblasts, firefly luciferase, cherry-picked, dose response (AID 624132).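 Also: firefly luciferase luminescence from reporter carrying the Shn3 3'UTR in osteoblasts.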 Type of test: functional.
The target in test [9] is Protein Wnt-3a (Mus musculus, UniProt P27467). The test can be described thus: antagonism of Wnt3a pathway luciferase reporter – Wnt-LIGHT cells, luminescence, selectivity assay for Gli-SUFU antagonist project, dose response (AID 651570).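 Also: Wnt-LIGHT reporter cells stimulated with conditioned medium from Wnt3a-producing cells.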 It counts as functional. The note with it: read-out: IC50_Mean.
Test [10] addresses DNA topoisomerase (Yersinia pestis, UniProt A0A2S9PM60). Briefly: Yersinia topoisomerase I cleavage product accumulation – biochemical, cherry-pick, dose response (AID 588525).
Test [11] deals with T1, Rac GTPase-activating protein 1 (Homo sapiens, UniProt Q9H0H5).
T1 sequence (Q9H0H5 whole entry): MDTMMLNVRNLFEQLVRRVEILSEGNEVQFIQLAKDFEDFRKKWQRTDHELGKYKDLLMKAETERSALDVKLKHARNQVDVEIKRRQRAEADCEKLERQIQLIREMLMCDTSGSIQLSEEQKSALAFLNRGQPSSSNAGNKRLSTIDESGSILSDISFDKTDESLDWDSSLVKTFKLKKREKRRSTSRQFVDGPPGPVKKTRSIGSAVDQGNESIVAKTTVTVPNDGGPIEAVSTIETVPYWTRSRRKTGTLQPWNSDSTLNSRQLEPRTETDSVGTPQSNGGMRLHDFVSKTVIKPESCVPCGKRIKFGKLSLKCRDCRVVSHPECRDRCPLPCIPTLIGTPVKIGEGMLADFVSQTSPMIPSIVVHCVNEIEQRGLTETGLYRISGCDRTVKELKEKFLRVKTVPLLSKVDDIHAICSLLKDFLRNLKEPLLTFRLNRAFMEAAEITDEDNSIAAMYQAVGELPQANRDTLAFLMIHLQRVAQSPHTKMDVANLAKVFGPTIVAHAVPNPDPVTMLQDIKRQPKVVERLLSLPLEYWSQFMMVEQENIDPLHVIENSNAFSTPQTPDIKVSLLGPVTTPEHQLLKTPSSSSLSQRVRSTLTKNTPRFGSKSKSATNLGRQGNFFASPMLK
Briefly: blockers of MgcRacGAP-driven Rac1 GTP hydrolysis – biochemical, ADP Hunter fluorescence, primary and confirmatory, confirmation (AID 624330). It counts as functional.

The target of test [12] is Apoptotic protease-activating factor 1 (Homo sapiens, UniProt O14727). Type of test: functional.
Test [13] has as its target DNA repair and recombination protein RAD54-like (Homo sapiens, UniProt Q92698). The test can be described thus: RAD54 Holliday junction migration blockers – biochemical, fluorescence, cherry-picked samples, dose series, confirmation (AID 651657). It counts as functional.
For test [14], the target named is T2, Histone-lysine N-methyltransferase NSD2 (Homo sapiens, UniProt O96028).
T2 sequence (O96028 whole entry): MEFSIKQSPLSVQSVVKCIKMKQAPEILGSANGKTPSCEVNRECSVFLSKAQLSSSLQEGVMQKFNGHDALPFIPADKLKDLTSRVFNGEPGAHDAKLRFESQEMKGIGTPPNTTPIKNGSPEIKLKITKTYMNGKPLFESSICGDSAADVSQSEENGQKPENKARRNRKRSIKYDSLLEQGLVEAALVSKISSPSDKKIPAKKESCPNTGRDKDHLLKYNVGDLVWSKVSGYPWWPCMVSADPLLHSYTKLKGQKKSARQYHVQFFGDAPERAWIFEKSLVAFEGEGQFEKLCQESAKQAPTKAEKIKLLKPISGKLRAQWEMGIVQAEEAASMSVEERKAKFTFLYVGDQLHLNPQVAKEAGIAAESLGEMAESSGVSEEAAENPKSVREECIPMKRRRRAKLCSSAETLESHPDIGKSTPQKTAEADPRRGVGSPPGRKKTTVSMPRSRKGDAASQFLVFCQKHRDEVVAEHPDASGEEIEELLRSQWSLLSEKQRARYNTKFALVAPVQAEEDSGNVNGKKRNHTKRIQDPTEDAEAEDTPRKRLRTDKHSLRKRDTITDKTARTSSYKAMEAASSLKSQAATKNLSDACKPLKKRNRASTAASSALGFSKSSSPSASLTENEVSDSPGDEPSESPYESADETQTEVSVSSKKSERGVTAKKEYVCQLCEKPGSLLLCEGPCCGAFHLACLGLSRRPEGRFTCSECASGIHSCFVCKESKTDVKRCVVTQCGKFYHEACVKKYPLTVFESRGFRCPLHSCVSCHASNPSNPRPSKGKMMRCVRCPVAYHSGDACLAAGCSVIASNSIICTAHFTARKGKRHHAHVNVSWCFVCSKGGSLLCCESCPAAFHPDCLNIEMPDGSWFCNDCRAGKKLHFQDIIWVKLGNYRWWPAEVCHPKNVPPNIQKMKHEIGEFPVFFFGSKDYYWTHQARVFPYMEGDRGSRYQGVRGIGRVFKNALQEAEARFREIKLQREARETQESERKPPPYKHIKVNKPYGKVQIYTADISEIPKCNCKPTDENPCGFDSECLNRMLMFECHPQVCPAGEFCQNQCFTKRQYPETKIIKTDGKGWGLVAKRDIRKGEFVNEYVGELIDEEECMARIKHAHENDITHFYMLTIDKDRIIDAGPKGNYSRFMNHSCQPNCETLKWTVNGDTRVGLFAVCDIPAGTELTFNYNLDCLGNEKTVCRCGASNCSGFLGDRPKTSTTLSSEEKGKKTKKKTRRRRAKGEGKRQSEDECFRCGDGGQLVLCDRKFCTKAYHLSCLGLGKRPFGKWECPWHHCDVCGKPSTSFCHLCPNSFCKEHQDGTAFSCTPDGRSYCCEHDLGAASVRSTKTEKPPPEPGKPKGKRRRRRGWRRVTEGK
It counts as biochemical.

Test [15] deals with Ras and Rab interactor 1/Tyrosine-protein kinase ABL1 (Homo sapiens, UniProt P00519+Q13671). Type of test: functional.
Test [16] concerns the target Hexokinase-1 (Homo sapiens, UniProt P19367). The test can be described thus: SAR analysis of small molecule inhibitors of hexokinase domain containing I (HKDC1) in the hexokinase 1 selectivity assay. [Related pubchem assays (depositor defined):AID493160, AID493190]. Type of test: functional.
Test [17] concerns the target T3, Hexokinase HKDC1 (Homo sapiens, UniProt Q2TB90).
T3 sequence (Q2TB90 whole entry): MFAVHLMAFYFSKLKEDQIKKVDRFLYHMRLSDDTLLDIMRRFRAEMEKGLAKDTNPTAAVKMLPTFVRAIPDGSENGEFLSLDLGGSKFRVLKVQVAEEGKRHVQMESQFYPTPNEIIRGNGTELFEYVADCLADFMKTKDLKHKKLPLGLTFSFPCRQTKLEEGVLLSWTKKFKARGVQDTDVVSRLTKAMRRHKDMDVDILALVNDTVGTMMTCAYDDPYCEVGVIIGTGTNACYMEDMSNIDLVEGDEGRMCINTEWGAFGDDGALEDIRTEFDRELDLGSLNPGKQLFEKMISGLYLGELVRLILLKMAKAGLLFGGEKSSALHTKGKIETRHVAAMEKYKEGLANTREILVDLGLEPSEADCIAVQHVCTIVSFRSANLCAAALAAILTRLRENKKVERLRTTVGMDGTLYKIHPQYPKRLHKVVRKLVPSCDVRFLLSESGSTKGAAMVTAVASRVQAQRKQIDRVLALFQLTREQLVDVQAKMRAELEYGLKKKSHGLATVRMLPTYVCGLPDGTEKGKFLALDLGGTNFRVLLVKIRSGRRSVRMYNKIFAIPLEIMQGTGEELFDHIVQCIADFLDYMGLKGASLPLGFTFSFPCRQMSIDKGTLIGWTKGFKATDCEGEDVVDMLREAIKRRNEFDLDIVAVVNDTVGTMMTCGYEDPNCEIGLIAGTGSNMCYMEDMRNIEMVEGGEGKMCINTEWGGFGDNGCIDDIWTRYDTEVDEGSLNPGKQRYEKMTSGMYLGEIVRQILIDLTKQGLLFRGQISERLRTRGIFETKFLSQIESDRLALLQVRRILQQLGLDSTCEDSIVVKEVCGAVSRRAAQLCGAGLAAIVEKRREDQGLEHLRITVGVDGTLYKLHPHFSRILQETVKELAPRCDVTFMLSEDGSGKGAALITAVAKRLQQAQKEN
Briefly: SAR analysis of small molecule inhibitors of hexokinase domain containing I (HKDC1). [Related pubchem assays (depositor defined):AID493160, AID493190]. It counts as functional.

Test [18] addresses Nonstructural protein 1 (Influenza A virus, UniProt Q194T2). It counts as functional, Influenza A virus (A/California/07/2009(H1N1)).
The target in test [19] is Aryl hydrocarbon receptor (Homo sapiens, UniProt P35869). To be noted: Potency.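 Also: confirmatory quantitative high-throughput screen measuring activation of the AhR signaling pathway.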
The target in test [20] is Cytochrome P450 3A4 (Homo sapiens, UniProt P08684). The note with it: Potency.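 Also: confirmatory qHTS run detecting inhibitors and substrates of CYP3A4.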
Test [21] concerns HeLa. Briefly: ATP-based viability loss in HeLa cells – cell-based, CellTiter-Glo luminescence, cherry-pick samples, cytotoxicity control for MITF activator project, dose response (AID 540259). Type of test: functional. The note with it: Homo sapiens.

26S proteasome non-ATPase regulatory subunit 14, sequence (O00487 whole entry): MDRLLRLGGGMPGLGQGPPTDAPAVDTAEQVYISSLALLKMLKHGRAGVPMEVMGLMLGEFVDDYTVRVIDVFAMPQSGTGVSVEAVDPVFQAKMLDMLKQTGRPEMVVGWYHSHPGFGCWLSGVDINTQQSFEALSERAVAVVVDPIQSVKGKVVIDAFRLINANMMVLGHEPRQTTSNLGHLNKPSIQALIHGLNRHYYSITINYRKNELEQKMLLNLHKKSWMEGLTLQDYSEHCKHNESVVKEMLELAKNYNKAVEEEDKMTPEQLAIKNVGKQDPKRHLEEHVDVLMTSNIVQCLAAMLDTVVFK
Melanocortin receptor 4, sequence (P32245 whole entry): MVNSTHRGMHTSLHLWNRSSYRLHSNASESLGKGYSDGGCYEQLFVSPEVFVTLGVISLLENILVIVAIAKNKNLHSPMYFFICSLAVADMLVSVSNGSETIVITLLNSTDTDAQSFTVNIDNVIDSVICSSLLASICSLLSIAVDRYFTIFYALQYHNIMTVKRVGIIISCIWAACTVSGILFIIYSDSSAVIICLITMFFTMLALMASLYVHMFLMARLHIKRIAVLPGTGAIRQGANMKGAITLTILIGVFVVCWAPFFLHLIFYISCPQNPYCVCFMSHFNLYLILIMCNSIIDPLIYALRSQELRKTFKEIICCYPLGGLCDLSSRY
72 kDa type IV collagenase, sequence (P08253 whole entry): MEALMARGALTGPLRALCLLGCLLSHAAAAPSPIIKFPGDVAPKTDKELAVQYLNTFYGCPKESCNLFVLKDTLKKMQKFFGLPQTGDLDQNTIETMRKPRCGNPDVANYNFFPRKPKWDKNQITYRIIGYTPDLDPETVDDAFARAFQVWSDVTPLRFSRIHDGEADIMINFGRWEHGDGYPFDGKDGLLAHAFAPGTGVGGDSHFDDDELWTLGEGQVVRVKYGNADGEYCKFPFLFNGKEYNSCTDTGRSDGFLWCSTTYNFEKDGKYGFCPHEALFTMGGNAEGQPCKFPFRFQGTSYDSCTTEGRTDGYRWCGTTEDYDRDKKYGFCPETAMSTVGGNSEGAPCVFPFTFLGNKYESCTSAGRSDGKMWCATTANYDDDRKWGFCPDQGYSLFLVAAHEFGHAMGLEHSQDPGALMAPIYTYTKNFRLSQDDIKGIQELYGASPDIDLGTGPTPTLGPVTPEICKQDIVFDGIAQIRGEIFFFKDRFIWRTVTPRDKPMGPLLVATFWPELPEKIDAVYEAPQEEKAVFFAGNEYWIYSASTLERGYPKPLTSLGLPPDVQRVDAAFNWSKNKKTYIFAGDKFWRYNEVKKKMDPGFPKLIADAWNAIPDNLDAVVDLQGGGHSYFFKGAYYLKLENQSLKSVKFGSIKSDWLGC
Hexokinase-1, sequence (P19367 whole entry, the tested form may be a part): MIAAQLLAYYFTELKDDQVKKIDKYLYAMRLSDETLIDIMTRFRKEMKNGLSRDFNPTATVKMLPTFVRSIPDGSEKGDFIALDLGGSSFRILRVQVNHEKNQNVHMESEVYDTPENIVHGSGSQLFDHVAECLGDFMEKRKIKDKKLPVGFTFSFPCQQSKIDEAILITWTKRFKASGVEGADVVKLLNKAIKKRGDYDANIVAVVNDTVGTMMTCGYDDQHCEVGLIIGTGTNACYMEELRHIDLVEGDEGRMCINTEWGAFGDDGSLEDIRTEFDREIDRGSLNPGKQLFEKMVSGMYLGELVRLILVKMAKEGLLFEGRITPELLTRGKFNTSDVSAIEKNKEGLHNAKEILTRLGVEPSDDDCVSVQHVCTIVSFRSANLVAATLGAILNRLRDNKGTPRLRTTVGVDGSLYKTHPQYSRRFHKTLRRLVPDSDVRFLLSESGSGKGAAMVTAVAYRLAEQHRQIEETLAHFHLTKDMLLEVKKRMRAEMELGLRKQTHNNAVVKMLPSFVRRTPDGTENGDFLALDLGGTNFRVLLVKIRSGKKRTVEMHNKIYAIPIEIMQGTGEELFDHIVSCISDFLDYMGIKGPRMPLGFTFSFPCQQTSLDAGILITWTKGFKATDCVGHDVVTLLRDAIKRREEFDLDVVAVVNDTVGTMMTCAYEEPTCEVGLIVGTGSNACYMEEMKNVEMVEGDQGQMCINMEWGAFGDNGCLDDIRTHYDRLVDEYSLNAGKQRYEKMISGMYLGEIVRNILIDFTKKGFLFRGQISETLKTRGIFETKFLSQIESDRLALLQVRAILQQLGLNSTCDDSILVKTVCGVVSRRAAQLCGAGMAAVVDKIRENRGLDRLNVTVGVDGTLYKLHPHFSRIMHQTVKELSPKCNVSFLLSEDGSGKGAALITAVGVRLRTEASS
Ras and Rab interactor 1/Tyrosine-protein kinase ABL1, sequence (P00519 whole entry, the tested form may be a part): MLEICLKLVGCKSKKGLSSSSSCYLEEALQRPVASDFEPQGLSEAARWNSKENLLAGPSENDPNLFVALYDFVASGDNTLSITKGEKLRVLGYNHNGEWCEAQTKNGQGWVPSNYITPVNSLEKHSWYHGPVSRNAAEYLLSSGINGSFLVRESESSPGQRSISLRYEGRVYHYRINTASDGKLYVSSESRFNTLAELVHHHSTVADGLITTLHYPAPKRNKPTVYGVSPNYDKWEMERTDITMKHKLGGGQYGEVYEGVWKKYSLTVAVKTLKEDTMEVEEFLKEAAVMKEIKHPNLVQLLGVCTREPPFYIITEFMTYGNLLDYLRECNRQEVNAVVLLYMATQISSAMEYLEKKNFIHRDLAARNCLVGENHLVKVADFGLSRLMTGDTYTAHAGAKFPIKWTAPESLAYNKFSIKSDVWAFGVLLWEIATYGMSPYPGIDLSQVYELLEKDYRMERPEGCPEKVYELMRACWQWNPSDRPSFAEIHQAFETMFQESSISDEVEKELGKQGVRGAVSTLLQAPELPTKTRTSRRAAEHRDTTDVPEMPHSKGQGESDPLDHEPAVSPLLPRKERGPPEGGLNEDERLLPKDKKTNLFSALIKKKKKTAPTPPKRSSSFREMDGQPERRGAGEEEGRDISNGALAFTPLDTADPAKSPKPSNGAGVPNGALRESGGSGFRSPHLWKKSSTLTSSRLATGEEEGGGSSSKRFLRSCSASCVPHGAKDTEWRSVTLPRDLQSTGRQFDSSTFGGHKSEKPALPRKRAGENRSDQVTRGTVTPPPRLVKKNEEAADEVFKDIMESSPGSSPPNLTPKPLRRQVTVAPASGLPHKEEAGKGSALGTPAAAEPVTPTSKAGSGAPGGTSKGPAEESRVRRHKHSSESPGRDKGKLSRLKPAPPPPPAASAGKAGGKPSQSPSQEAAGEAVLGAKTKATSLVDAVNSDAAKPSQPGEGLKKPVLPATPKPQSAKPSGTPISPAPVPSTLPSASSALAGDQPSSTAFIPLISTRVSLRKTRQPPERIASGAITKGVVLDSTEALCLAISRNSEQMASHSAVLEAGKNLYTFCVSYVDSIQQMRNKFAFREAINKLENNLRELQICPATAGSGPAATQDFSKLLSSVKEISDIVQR
Ras and Rab interactor 1/Tyrosine-protein kinase ABL1, sequence (Q13671 whole entry, the tested form may be a part): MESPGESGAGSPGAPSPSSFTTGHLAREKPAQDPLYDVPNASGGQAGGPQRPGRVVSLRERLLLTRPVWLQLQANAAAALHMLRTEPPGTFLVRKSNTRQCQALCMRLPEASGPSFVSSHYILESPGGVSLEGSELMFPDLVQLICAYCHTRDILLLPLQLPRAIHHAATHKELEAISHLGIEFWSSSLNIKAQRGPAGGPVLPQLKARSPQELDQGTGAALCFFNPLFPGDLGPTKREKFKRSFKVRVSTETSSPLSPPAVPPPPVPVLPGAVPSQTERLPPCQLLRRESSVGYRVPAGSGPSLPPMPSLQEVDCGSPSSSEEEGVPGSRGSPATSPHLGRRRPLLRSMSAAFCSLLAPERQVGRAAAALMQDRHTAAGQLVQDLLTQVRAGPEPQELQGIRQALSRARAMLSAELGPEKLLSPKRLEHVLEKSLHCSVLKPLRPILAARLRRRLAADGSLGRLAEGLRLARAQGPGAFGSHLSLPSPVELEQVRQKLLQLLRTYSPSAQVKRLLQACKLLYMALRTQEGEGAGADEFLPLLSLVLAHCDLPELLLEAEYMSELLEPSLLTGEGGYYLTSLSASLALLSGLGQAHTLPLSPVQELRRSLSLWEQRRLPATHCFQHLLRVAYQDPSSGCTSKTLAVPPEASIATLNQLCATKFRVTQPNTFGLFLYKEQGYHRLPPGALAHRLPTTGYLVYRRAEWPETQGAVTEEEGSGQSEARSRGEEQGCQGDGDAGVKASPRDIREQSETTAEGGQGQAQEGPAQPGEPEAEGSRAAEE
Cytochrome P450 3A4, sequence (P08684 whole entry): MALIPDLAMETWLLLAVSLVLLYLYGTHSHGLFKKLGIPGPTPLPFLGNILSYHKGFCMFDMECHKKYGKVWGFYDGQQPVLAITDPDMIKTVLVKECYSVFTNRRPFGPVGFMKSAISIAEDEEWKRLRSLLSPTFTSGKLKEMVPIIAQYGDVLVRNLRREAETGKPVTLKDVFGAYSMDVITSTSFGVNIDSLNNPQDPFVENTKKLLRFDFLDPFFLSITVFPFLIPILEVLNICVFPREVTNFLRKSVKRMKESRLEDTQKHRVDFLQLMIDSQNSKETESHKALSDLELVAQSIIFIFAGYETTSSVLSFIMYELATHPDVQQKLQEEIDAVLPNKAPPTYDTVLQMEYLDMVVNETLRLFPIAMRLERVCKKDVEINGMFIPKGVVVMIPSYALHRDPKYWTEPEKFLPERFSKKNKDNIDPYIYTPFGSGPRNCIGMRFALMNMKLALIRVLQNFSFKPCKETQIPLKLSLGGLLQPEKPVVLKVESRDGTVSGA
Nonstructural protein 1, sequence (Q194T2 whole entry): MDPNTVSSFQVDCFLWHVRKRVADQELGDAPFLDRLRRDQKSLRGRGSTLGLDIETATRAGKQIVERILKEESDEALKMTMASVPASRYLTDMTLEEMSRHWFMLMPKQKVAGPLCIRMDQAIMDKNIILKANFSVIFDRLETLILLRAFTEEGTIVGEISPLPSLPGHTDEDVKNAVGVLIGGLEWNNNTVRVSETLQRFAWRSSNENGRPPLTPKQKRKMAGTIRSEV

In the case of `O=C(Cn1cc(C(=O)COc2ccccc2)c2ccccc21)NCc1ccco1`, the figures for the IC50 in [1], in test [2] and in test [3] were 41.3 µM (active), 47.6 µM (active) and > 100 µM (inactive), respectively.
For orientation: AC50 means the concentration at which the activity in the assay is half-maximal. For the compound `CCOC(=O)c1c(NC(=O)COc2cccc3c2CCN(C)C3=O)sc2c1CCC2`, the AC50 was 22.8 µM (active) in test [4], 41.7 µM (active) in test [6] and 5.44 µM (active) in test [8]. Further, the IC50 in test [5] is > 64.6 µM (inactive); in test [7], > 64.6 µM (inactive); in test [9], 6.12 µM (active).
In the case of `Nc1cc(O)nc(SCC(=O)N2N=C(c3ccc4ccccc4c3)CC2c2ccccc2)n1` (stereo not drawn), in test [10], the AC50 is 16.1 µM (active).
Turning to `CC1(C)OC(=O)C(=Cc2ccc(-c3ccc(S(N)(=O)=O)cc3)o2)C(=O)O1`, the IC50 in test [5] is > 64.6 µM (inactive); in [7], > 64.6 µM (inactive); in test [11], 41.8 µM (active).
As for `COc1ccc(C(=O)Nc2ccc3c(c2)C(=O)c2ccccc2C3=O)cc1OC`, the IC50 in [12] was > 100 µM (inactive).
As for `CCNC1CCC(Nc2ccnc3cc(Cl)ccc23)CC1` (stereo not drawn), the AC50 was 25.9 µM (active) in test [13] and 7.52 µM (active) in test [14].
Take `Oc1nc2ccccc2n1C1CCN(C(c2nnnn2C2CCCCC2)C2CC2)CC1` (stereo not drawn): the IC50 in test [15] is 3.14 µM (active).
In the case of `O=c1c2ccccc2nc(/C=C/c2cccnc2)n1Cc1ccccc1Cl`, the IC50 in test [16] and in test [17] was > 80 µM (inactive) in each case.
On to `O=[N+]([O-])c1ccc(O)c(/C=N/NC2=NS(=O)(=O)c3ccccc32)c1`, for which the IC50 in test [18] is 2.35 µM (active); in [1], 36.8 µM (active); in test [2] it was 34.9 µM (active); in test [3], 5.41 µM (active).
For the compound `O=c1c2ccccc2nc(/C=C/c2cccc(Cl)c2)n1Cc1ccccc1`, the IC50 in [16] and in [17] was > 80 µM (inactive) in each case.
For the compound `Nc1ccc2cc3ccccc3cc2c1` [2-AMINOANTHRACENE], the AC50 is 25.1 µM (inconclusive) in test [19], 15.8 µM (inconclusive) in test [20] and 122 µM (active) in test [21].
